Measured values published in patent US6660255B1, “Inhibition of gene transcription by polyamide DNA-binding ligands” (California Institute of Technology, priority 1997, dated 2003).

Assays:
[1] = test system: HIV-1 promoter (LEF-1-activated transcription); experiment: HIV-1 transcription in vitro, H9 cell extract supplemented with HeLa nuclear extract; assay type: biochemical; conditions: mismatch polyamide
Source text: Based on the-results described above, it was expected that polyamide inhibition of LEF-1 binding would inhibit LEF-1-dependent transcription in an appropriate in vitro assay system. […] The H9 cell extract was supplemented with the HeLa cell-derived nuclear extract in order to obtain high levels of transcription. The H9 cell extract stimulates HIV-1 transcription ˜2.5 to 3-fold over the level of transcription observed with the HeLa extract alone and immunodepletion of LEF-1 protein from the H9 extract abolishes this activated transcription.
The effects of polyamides 1 and 2 on HIV-1 transcription were tested in an in vitro transcription assay with a HeLa cell nuclear extract (FIG. 21A). The effects of the polyamides on basal transcription by RNA polymerase II was monitored with a nuclear extract prepared from HeLa cells (J. D. Dignam, P. L. Martin, B. S. Shastry, R. G. Roeder, Describe eukaryotic gene transcription with purified components Meth. Enzymol. 101, 582 (1983)). […] Whole cell extracts of H9 cells in log phase growth were prepared by hypotonic lysis and contained 20 mg/ml protein, as determined by the Bradford reaction. […]
The effects of polyamides 3 and 4 on HIV-1 transcription in an in vitro system consisting of a cell-free extract prepared from cultured human lymphoid H9 cells supplemented with HeLa cell extract were determined. […]

[2] = test system: CMV major immediate early promoter; experiment: CMV MIEP transcription in vitro (control template); assay type: biochemical, human cytomegalovirus; conditions: H9/HeLa extract system
Method: The effects of polyamides 1 and 2 on HIV-1 transcription were tested in an in vitro transcription assay with a HeLa cell nuclear extract (FIG. 21A). The effects of the polyamides on basal transcription by RNA polymerase II was monitored with a nuclear extract prepared from HeLa cells (J. D. Dignam, P. L. Martin, B. S. Shastry, R. G. Roeder, Describe eukaryotic gene transcription with purified components Meth. Enzymol. 101, 582 (1983)). The human lymphloid cell line H9 (ATCC HTB 176) was grown in suspension culture in RPMI medium (Bio Whittaker) supplemented with 10% fetal calf serum (Tissue Culture Biological). Whole cell extracts of H9 cells in log phase growth were prepared by hypotonic lysis and contained 20 mg/ml protein, as determined by the Bradford reaction. Run-off RNA transcripts of ˜300 bases (CMV MIEP linked to a guanine-less cassette, plasmid pEIB-GL and ˜500 bases (pHIV LTR-CAT) where obtained with EcoRI-digested plasmid DNA (100 ng per 25 μL reaction).
Polyamide-DNA complexes were allowed to form at ambient temperature for 30 min prior to addition of the nuclear extract. […] RNA was purified by extraction with RNAzol (TelTest, Friendswood, Tex.) and analyzed by electrophoresis on a denaturing (8.3 M urea) 6% polyacrylamide gel. […]

[3] = test system: TBP binding to the TATA box region of the adenovirus major late promoter; experiment: Gel mobility shift, TBP binding to adenovirus major late promoter TATA box; parameters: species or system human; conditions: mismatch flanking sequences
Method: Regions of polyamide protection were determined by analysis of the digestion products on a 6% denaturing polyacrylamide sequencing gel. Storage phosphorimage analysis of the data was used to obtain dissociation constants for the binding reactions (using Kodak Storage Phosphor Screens and a Molecular Dynamics SF PhosphorImager). Recombinant human TBP (rhTBP) was obtained from Promega and was used in footprinting and gel mobility shift experiments as recommended. The reaction mixtures also contained 100 ng of poly dG-poly dC per 10 μL gel shift reaction or 50 μL footprinting reaction. For gel mobility shift assays, 6% polyacrylamide gels (20:1, acrylamide to bisacrylamide) contained 44 mM Tris-borate, pH 8.3, 1 mM EDTA, […] and 0.02% (v/v) NP-40. The same buffer was used for electrophoresis of 1 mm thick gels at 15 volts/cm for 2 hours at 4° C.

wild-type HIV-1 promoter = experiment: HIV-1 transcription in vitro with lymphoid cell nuclear extract; assay type: biochemical; conditions: read-out: polyamide concentration for fifty percent inhibition of HIV-1 transcription
Method: The recognition sites for polyamide HIV-1 are of the form 5′-WGCWGCW-3″ (where W=A or T). Since a pyrrole-pyrrole pair can recognize either an A-T base pair or a T-A base pair, polyamide HIV-1 will recognize both the 5′ and 3′ flanking sequences of the HIV-1 TATA element. […] This concentration corresponds to only a 16-fold excess of polyamide over specific binding sites in the HIV-1 plasmid DNA (3 nM).

## CN(C)CCCNC(=O)CCNC(=O)c1cc(NC(=O)c2nc(NC(=O)CCNC(=O)c3cc(NC(=O)c4nc(NC(=O)CCCNC(=O)c5cc(NC(=O)c6nc(NC(=O)CCNC(=O)c7cc(NC(=O)c8nccn8C)cn7C)cn6C)cn5C)cn4C)cn3C)cn2C)cn1C [polyamide 4, ImPy-β-ImPy-γ-ImPy-β-ImPy-β-Dp]
[1]
  inhibition of HIV-1 transcription: fails to inhibit
[2]
  inhibition of CMV transcription: fails to inhibit
[3]
  inhibition of TBP binding to adenovirus major late promoter TATA box: did not inhibit
wild-type HIV-1 promoter
  IC50: ~50 nM
